{"source": "patent EP1054892B1", "about": "“AZOLE PEPTIDOMIMETICS AS THROMBIN RECEPTOR ANTAGONISTS” (Ortho-McNeil Pharmaceutical, Inc., priority 1998, dated 1999)", "key": {"[1]": {"system": "gel-filtered platelets", "experiment": "In vitro inhibition of thrombin-induced gel-filtered platelet aggregation", "assay_type": "cell-based", "details": "agonist thrombin, gel-filtered human platelets, read-out: Platelet Aggregation** IC50 Thr*", "experimental": "IN VITRO INHIBITION OF THROMBIN-INDUCED GEL-FILTERED PLATELET AGGREGATION ASSAY.\nThe percentage of platelet aggregation is calculated as an increase in light transmission of compound-treated platelet concentrate vs. control-treated platelet concentrate. Human blood is obtained from drug free, normal donors in tubes containing 0.13 M sodium citrate. Platelet rich plasma (PRP) is collected by centrifugation of whole blood at 200 x g for 10 min at 25°C. The PRP (5 mL) is gel filtered through Sepharose 2B (bed volume 50 mL), and the platelet count is adjusted to 2x10^7 platelets per sample. The following constituents are added to a siliconized cuvette: concentrated platelet filtrate and Tyrode's buffer (0.14 M NaCI, 0.0027 M KCI, 0.012 M NaHCO3, 0.76 mM Na2HPO4, 0.0055 M glucose, 2 mg/mL BSA and 5.0 mM HEPES @ pH 7.4) in an amount equal to 350 µl, 50 µl of 20 mM calcium and 50 µl of the test compound. Aggregation is monitored in a BIODATA aggregometer for the 3 min following the addition of agonist (thrombin 50 µl of 1 unit/mL).\nThe table contains IC50 values (µM) of the compounds in a thrombin receptor binding assay, and IC50 values (µM) against platelet aggregation stimulated by two agonists, thrombin or SFLLRN-NH2 (TRAP).\n* µM ** Thrombin-induced aggregation of gel-filtered platelets in µM."}, "[2]": {"system": "gel-filtered platelets", "experiment": "In vitro inhibition of SFLLRN-NH2 (TRAP)-stimulated gel-filtered platelet aggregation", "assay_type": "cell-based", "details": "agonist SFLLRN-NH2 (TRAP), gel-filtered human platelets"}, "[3]": {"biological_target": "T1, thrombin receptor (Homo sapiens, UniProt P25116)", "T1 construct": "CHRF membranes (Jones, Biochim. Biophys. Acta 1992, 1136, 272) are thawed from -70°C; endogenous in cells; host or cells: CHRF cell membranes", "T1 sequence (P25116 22-425)": "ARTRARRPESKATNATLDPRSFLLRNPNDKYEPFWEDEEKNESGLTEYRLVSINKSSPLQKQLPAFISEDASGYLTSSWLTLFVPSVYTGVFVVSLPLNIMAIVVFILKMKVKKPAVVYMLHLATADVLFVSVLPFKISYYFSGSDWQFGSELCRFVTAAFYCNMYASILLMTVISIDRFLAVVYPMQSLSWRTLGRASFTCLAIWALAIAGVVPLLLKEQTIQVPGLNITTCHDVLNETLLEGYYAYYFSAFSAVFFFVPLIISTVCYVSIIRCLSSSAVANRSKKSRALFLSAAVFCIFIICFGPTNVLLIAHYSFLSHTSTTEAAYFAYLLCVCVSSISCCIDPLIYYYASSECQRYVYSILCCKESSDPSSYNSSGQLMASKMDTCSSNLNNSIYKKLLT", "experiment": "In vitro thrombin receptor binding assay (CHRF membranes, tritiated 721-40)", "details": "displacement of tritiated 721-40 (Ser-pFPhe-Har-Leu-Har-Lys-Tyr-NH2), read-out: Thr Receptor Binding IC50*", "experimental": "IN VITRO THROMBIN RECEPTOR BINDING ASSAY.\nCHRF membranes (Jones, Biochim. Biophys. Acta 1992, 1136, 272) are thawed from -70°C, centrifuged at maximum speed for 5 min, washed twice with binding buffer (50 mM HEPES containing 5 mM MgCl2 and 0.1% BSA), and re-suspended in binding buffer ([…]). 100 µl of membranes are added to the 24-Wallac plates and delivered to the Tomtech apparatus. In a typical experiment, 6 µl of samples (from a 125 µg/mL intermediary plate, 20%DMSO) and 44 µl buffer are delivered to the plates (final conc. of compounds is 3.7 µg/mL, 0.6% DMSO). Similarly, 6 µl 20%DMSO and 44 µl buffer are delivered to both column 1 (NSB) and column 12 (TB). 10 µl Ser-pFPhe-Har-Leu-Har-Lys-Tyr-NH2 (721-40; 500 µM in deionized water) is added to column 1.50 µl tritiated 721-40 (specific activity 46 Ci/mmol) is added to all the wells. The plates are mixed well for 20 seconds, incubated for 30 min, and then harvested with 10 mM HEPES/138 mM NaCl using the Skatron harvester. The filters (GF/C Brandel FPXLR 296) are presoaked 3 h in 0.5% polyethylenimine in HEPES/0.1 M N-acetylglucosamine) are set in saran wrap and dried for 3 min in the microwave, and placed in sample bags (Wallac 1450-432). 4.5 mL scintillation fluid (Wallac, Betaplate Scint 1205-440) is added. The bags are sealed, placed in filter cassettes (Wallac 1450-104), and analyzed on the microbeta counter. […]"}}, "note": "Numbered stars: 1 amine (or outer) side, 2 acyl side, 3 side chain; on linkers, the order of the positions; unused ones are H or OH. Square brackets hold non-standard residues; d marks the D form. Peptide text beside a SMILES is read from it. Phe(4-F)ψ(2,4-Thz) = O=C(c1csc([C@H](Cc2ccc(F)cc2)N[*:1])n1)[*:2]; hArg = N=C(N)NCCCC[C@H](N)C(=O)O; Cha = N[C@@H](CC1CCCCC1)C(=O)O; Sar = CNCC(=O)O", "data": [{"smiles": "CNCC(=O)N[C@@H](Cc1ccc(F)cc1)c1nc(C(=O)N[C@@H](CC2CCCCC2)C(=O)N[C@@H](CCCNC(=N)N)C(=O)NCCc2ccccc2)cs1", "note": "[Compound 3, 2-[1(S)-Sarcosineamido-2-(4-fluorophenyl)ethyl]thiazole-4-carboxycyclohexylalanyl-arginine phenethylamide]", "values": [{"measurement": "IC50", "setting": "[1]; Platelet", "result": 12, "unit": "µM"}, {"measurement": "IC50", "setting": "[2]; Platelet", "result": 0.6, "unit": "µM"}]}, {"smiles": "CC[C@H](C)[C@H](N)C(=O)N[C@@H](Cc1ccc(F)cc1)c1nc(C(=O)N[C@@H](CC2CCCCC2)C(=O)N[C@@H](CCCNC(=N)N)C(=O)N[C@@H](Cc2ccccc2)C(N)=O)cs1", "note": "[Compound 5] (H-I[Phe(4-F)ψ(2,4-Thz)][Cha]RF-NH2)", "values": [{"measurement": "IC50", "setting": "[1]; Platelet", "result": 43, "unit": "µM"}, {"measurement": "IC50", "setting": "[2]; Platelet", "result": 9, "unit": "µM"}]}, {"smiles": "Cc1oc([C@H](Cc2ccc(F)cc2)N(C)C)nc1C(=O)N[C@@H](CC1CCCCC1)C(=O)N[C@@H](CCCNC(=N)N)C(=O)NCc1ccccc1", "note": "[Compound 10, 2-[1(S)-N,N-Dimethyl-2-(4-fluorophenyl)ethyl]-5-methyloxazole-4-carboxy-cyclohexylalanyl-arginine benzylamide]", "values": [{"measurement": "IC50", "setting": "[1]", "result": 11, "unit": "µM"}, {"measurement": "IC50", "setting": "[2]", "result": 17, "unit": "µM"}]}, {"smiles": "Cc1oc(C(Cc2ccc(F)cc2)NC(=O)C(N)Cc2cn(Cc3ccccc3)cn2)nc1C(=O)NC(CC1CCCCC1)C(=O)NC(CCCNC(=N)N)C(=O)NCc1ccccc1", "note": "[Compound 8, 2-[1(S)-N(tau)-Benzyl-histidineamido-2-(4-fluorophenyl)ethyl]-5-methyloxazole-4-carboxy-cyclohexylalanyl-arginine benzylamide]", "values": [{"measurement": "IC50", "setting": "[1]; Platelet", "result": 13, "unit": "µM"}, {"measurement": "IC50", "setting": "[2]; Platelet", "result": 5, "unit": "µM"}]}, {"smiles": "CNCC(=O)N[C@@H](Cc1ccc(F)cc1)c1nc(C(=O)N[C@@H](CC2CCCCC2)C(=O)N[C@@H](CCCNC(=N)N)C(=O)NCc2ccccc2)c(C)o1", "note": "[Compound 7, 2-[1(S)-Sarcosineamido-2-(4-fluorophenyl)ethyl]-5-methyloxazole-4-carboxy-cyclohexylalanyl-arginine benzylamide]", "values": [{"measurement": "IC50", "setting": "[1]; Platelet", "result": 19, "unit": "µM"}, {"measurement": "IC50", "setting": "[2]; Platelet", "result": 22, "unit": "µM"}]}, {"smiles": "CNCC(=O)N[C@@H](Cc1ccc(F)cc1)c1nc(C(=O)N[C@@H](CC2CCCCC2)C(=O)N[C@@H](CCCNC(=N)N)C(=O)NCc2ccccc2)co1", "note": "[Compound 1, 2-[1(S)-Sarcosineamido-2-(4-fluorophenyl)ethyl]oxazole-4-carboxy-cyclohexylalanyl-arginine benzylamide]", "values": [{"measurement": "IC50", "setting": "[1]; Platelet", "result": 25, "unit": "µM"}, {"measurement": "IC50", "setting": "[2]; Platelet", "result": 10, "unit": "µM"}]}, {"smiles": "N=C(N)NCCC[C@H](NC(=O)[C@H](CC1CCCCC1)NC(=O)c1coc([C@H](Cc2ccc(F)cc2)NC(=O)CCN)n1)C(=O)NCc1ccccc1", "note": "[Compound 2, 2-[1(S)-β-Alanineamido-2-(4-fluorophenyl)ethyl]oxazole-4-carboxycyclohexylalanyl-arginine benzylamide]", "values": [{"measurement": "IC50", "setting": "[1]; Platelet", "result": 10, "unit": "µM"}, {"measurement": "IC50", "setting": "[2]; Platelet", "result": 7, "unit": "µM"}]}, {"smiles": "CNCC(=O)N[C@@H](Cc1ccc(F)cc1)c1nc(C(=O)N[C@@H](CCCCN)C(=O)N[C@@H](CCCNC(=N)N)C(=O)NCCc2ccccc2)cs1", "note": "[Compound 6, 2-[1(S)-Sarcosineamido-2-(4-fluorophenyl)ethyl]thiazole-4-carboxy-lysyl-arginine phenethylamide]", "values": [{"measurement": "IC50", "setting": "[1]; Platelet", "result": 26, "unit": "µM"}, {"measurement": "IC50", "setting": "[2]; Platelet", "result": 4, "unit": "µM"}]}, {"smiles": "CC(=O)N[C@@H](Cc1ccc(F)cc1)c1nc(C(=O)N[C@@H](CC2CCCCC2)C(=O)N[C@@H](CCCNC(=N)N)C(=O)NCc2ccccc2)c(C)o1", "note": "[Compound 9, 2-[1(S)-Acetamido-2-(4-fluorophenyl)ethyl]-5-methyloxazole-4-carboxy-cyclohexylalanyl-arginine benzylamide]", "values": [{"measurement": "IC50", "setting": "[1]; Platelet", "result": 24, "unit": "µM"}, {"measurement": "IC50", "setting": "[2]; Platelet", "result": 11, "unit": "µM"}]}, {"smiles": "CNCC(=O)N[C@@H](Cc1ccc(F)cc1)c1nc(C(=O)N[C@@H](CC2CCCCC2)C(=O)N[C@@H](CCCCNC(=N)N)C(=O)N[C@@H](Cc2ccccc2)C(N)=O)cs1", "note": "[Compound 4] (H-[Sar][Phe(4-F)ψ(2,4-Thz)][Cha][hArg]F-NH2)", "values": [{"measurement": "IC50", "setting": "[3]", "result": 5, "unit": "µM"}, {"measurement": "IC50", "setting": "[1]; Platelet", "result": 45, "unit": "µM"}]}]}
